From ChEMBL document CHEMBL5365419, “Identification of a Protein Arginine Methyltransferase 7 (PRMT7)/Protein Arginine Methyltransferase 9 (PRMT9) Inhibitor” (J Med Chem, 2023)
The source made the active and inactive calls. The calls are words filed in the database; no cut-off is given here.

Key:
[1] = target: T1, Protein arginine N-methyltransferase 7 (Homo sapiens) (UniProt Q9NVM4); experiment: Inhibition of PRMT7 catalysed methylation of HNRNPA1 at R194 residue in HEK293T cells assessed as increase in ratio of abundance of unmethylated over methylated peptides at 10 to 50 uM by UHPLC- MS/MS analysis; assay type: cell-based; details: dose 10-50 µM, time 24-48 hrs, TDE = time-dependent effect
T1 sequence (whole entry): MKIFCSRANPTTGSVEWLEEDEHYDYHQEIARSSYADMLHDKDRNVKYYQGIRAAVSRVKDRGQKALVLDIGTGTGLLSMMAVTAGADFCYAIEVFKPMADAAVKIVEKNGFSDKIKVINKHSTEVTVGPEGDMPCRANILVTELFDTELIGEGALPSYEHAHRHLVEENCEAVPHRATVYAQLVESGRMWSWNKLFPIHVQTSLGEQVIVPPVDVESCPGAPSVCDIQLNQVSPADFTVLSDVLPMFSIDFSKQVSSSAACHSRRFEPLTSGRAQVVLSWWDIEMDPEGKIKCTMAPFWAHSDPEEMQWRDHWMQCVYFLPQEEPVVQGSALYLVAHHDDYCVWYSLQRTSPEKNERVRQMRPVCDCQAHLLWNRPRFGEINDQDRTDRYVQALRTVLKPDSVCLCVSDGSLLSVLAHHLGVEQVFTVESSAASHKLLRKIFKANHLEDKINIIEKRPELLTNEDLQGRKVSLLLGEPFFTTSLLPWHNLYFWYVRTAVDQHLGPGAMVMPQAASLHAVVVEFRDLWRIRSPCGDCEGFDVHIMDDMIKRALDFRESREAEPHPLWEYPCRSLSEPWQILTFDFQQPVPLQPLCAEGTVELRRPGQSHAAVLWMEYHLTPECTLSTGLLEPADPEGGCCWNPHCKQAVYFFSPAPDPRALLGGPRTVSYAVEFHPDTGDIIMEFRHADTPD

[2] = target: T2, Histone-lysine N-methyltransferase EHMT2 (Homo sapiens) (UniProt Q96KQ7); experiment: Inhibition of N-terminal/C-terminal His-tagged human recombinant G9a (913 to 1193 residues) at higher concentration using histone H3 (1 to 21 residues) as substrate and 3H-SAM as cosubstrate incubated for 60 mins by scintillation counter analysis
T2 sequence (whole entry): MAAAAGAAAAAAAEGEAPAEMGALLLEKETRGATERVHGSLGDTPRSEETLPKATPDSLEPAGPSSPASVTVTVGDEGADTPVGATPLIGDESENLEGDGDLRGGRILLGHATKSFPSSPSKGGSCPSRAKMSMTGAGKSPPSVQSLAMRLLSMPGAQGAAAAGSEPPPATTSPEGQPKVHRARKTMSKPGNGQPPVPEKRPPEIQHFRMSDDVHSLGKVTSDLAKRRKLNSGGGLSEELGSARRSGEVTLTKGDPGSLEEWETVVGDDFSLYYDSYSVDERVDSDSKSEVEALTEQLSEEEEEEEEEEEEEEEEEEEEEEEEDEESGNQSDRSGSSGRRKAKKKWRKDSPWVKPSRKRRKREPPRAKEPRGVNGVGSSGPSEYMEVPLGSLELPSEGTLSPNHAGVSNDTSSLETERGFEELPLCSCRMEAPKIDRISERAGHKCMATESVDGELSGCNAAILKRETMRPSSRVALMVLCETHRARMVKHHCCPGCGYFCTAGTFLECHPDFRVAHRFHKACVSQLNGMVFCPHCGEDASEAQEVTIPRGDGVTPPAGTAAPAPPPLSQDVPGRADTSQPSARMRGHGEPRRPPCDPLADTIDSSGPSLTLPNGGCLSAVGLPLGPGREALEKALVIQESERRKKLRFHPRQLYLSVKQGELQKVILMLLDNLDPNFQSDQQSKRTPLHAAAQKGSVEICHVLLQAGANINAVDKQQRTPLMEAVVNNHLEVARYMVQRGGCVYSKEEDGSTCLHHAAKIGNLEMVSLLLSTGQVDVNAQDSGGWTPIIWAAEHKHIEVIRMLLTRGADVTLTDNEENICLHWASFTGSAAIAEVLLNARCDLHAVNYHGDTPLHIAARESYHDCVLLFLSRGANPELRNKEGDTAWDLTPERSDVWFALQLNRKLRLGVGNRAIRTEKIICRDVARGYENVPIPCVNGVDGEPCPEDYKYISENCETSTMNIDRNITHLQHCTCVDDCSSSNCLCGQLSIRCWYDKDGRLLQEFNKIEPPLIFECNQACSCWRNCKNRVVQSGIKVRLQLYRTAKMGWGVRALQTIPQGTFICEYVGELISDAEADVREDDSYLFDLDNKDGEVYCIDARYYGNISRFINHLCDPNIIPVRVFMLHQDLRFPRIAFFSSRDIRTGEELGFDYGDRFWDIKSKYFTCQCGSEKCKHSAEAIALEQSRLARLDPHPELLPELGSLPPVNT

[3] = target: Histone-lysine N-methyltransferase EZH2 (Homo sapiens) (UniProt Q15910); experiment: Inhibition of N-terminal His-tagged human full-length recombinant EZH2 (2 to 746 residues) in PRC2 complex at higher concentration using core histone as substrate and 3H-SAM as cosubstrate incubated for 60 mins by scintillation counter analysis
Chain of Histone-lysine N-methyltransferase EZH2 (Homo sapiens) (Q15910 whole entry, looked up, the tested form may be a part): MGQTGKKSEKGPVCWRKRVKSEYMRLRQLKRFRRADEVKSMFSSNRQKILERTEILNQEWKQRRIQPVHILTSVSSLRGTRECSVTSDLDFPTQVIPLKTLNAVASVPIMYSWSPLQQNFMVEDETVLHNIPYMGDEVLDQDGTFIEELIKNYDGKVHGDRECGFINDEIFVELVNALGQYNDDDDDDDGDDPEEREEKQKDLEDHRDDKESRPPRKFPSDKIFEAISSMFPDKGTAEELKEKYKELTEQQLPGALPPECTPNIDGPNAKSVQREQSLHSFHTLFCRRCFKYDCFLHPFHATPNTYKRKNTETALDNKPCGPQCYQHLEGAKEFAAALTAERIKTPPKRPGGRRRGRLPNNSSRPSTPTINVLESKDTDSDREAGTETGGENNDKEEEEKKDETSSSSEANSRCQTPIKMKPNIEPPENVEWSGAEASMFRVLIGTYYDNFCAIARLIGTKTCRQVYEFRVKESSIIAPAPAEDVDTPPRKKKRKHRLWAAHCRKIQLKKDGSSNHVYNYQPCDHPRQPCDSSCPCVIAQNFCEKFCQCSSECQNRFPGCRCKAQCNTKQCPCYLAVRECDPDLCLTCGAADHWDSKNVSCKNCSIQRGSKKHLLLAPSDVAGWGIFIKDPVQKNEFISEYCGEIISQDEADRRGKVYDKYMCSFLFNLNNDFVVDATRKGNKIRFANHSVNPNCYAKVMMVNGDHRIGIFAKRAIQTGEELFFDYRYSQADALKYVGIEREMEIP

inhibition [1]: Tde | inhibition [2]: inactive | inhibition [3]: inactive
Structure (SMILES): COC(=O)c1cc(O)c2cc(NC(=O)NCCCNC(=N)NC[C@H]3O[C@@H](n4cnc5c(N)ncnc54)[C@H](O)[C@@H]3O)cc(C(F)(F)F)c2c1
